Results taken from patent US9587220B2, “Method for inducing cardiac differentiation of pluripotent stem cell” (Kyoto University, priority 2012, dated 2017).

Key:
[1] = test system: IMR90-1 hiPSCs; experiment: Beating colonies of hiPSCs (IMR90-1) in serum-containing cardiac differentiation; format: cell-based, human; conditions: for proportions of beating colonies: hiPSCs; for proportions of beating colonies with BIO: with 5 μM BIO (GSK3β inhibitor)
Experimental: Confluent hESCs and hiPSCs were gently detached with CTK solution and transferred into Petri dishes (BD Biosciences) with Primate ES Cell Culture Medium (ReproCELL, Japan). Cells were held in suspension culture for 8-24 h to form aggregates. The sizes of hPSC aggregates (0.3-1 mm in diameter) are important for efficient differentiation. Following suspension culture, cell aggregates were attached to culture dishes (3-10×10^5 cells cm^−2) in cardiac differentiation medium: IMDM (Sigma), containing 20% FBS (Gibco), 1% MEM non-essential amino acid solution (Sigma), 1% Penicillin-Streptomycin (Gibco), 2 mM L-glutamine (Sigma), 0.001% 2-Mercaptoethanol (Gibco), and 0.005N NaOH, with 10 ng ml^−1 BMP4 (R&D Systems). The medium was changed to cardiac differentiation medium with 10 μM KY02111 and/or other WNT inhibitors added on Day 3 (hiPSC lines) or Day 4 (human or monkey ESC lines); XAV939 (Wako, Japan), IWP-2 (Santa Cruz Biotechnology), IWR-1 (Merck4Bioscience), IGFBP4 (R&D Systems), Dkk1 (R&D Systems) and the mixture of bFGF (R&D Systems), BMP4 (R&D Systems), VEGF (R&D Systems), DKK1 (R&D Systems), and Activin A (R&D Systems) (Non-patent literature 16). Medium was changed every 2-3 d. KY02111 and other WNT inhibitors were added until Day 9 for hiPSC lines and the monkey ESC line, or Day 14 for hESC lines. On Day 15, cardiac cell colonies on dishes were incubated with protease solution (0.1% collagenase type I, 0.25% trypsin, 1 U ml^−1 DNase I, 116 mM NaCl, 20 mM HEPES, 12.5 mM NaH2PO4, 5.6 mM glucose, 5.4 mM KCl, and 0.8 mM MgSO4, pH 7.35) for 0.5-2 h, until all cardiac colonies were detached from the bottom of the wells. The detached cardiac colonies were transferred into 15 ml tubes with fresh cardiac differentiation medium and precipitated by gravity, and the supernatant was removed by aspiration. The cardiac colonies were then transferred into Ultra-low culture dishes (Corning, 3261) or 6-well plates (Corning, YO-01835-24) in cardiac differentiation medium without both serum and NaOH. The floating cardiac colonies were maintained for more than 1 month, and the media were changed every 5 d. A differentiation method of mouse ESC (R1 line) was carried out as previously described^46, and KY02111 was added during Days 3-6. Beating colonies were counted on Day 9.

[2] = test system: human αMHC promoter-driven EGFP transgenic monkey ESCs; experiment: αMHC promoter-driven GFP expression, cardiac differentiation of transgenic monkey ESCs (HCA); format: cell-based; conditions: for intensity of the GFP signal driven by αMHC promoter: comparison of chemical and proteinaceous WNT inhibitors, FIG. 3b,c; for cardiac differentiation when BIO was added: monkey ESCs and hiPSCs, with 5 μM BIO
Excerpt: To generate human αMHC promoter-driven EGFP-expressing monkey ESCs, the 918 bp upstream from the transcriptional starting site and the third exon just before the open reading frame were amplified from genomic DNAs of KhES-1 hESCs by PCR, using the following primer sets —forward primer, 5′- […]-3′ (SEQ ID No: 37); reverse primer, 5′- (including a SalI linker) 22 […]-3′ (SEQ ID No: 38)—and then ligated into pGEM-T Easy Vector (Promega). The HindIII/SalI fragment from the cloning vector was connected with pEGFP-1 (Clontech). The linearized αMHC-EFGP vector was introduced into CMK6.4 monkey ESCs by electroporation. Transgenic ESC clones were selectively grown with G418 (Sigma-Aldrich). The expression of EGEP was confirmed in beating colonies.
The confluent (4-5 d after passage) αMHC-GFP transgenic monkey ESCs were dissociated enzymatically by CTK solution (Non-patent literature 1), and the ESC clumps (40-100 μm in diameter) were obtained using 40 and 100 μm Cell Strainers (BD Biosciences). The ESC clumps (approximately 5.0×10^3 cells well^−1) were transferred onto 96-well plates (Greiner Bio-One, 96-well black plate, Cat. No. 655090) and incubated in cardiac differentiation medium as described in (4) below. During Days 6-14 of cardiac differentiation, 9600 compounds from the chemical library (dissolved in DMSO) were screened using 96-well plates. Sixteen and 80 wells were used for the control (0.1% DMSO) and chemical compounds (1 per well), respectively. Final concentration of the each compound was approximately 1-5 μM. Medium containing small molecules was changed every 4 d. On Day 14, GFP fluorescence of ESCs was measured by whole-plate scanning, using the Metamorph imaging system (Molecular Device). Metamorph software was used to analyze the GFP fluorescence data and calculate Fluorescence Area, Total Fluorescence Intensity, Average Fluorescence Intensity, and number of GFP-positive colonies for each well. Hit compounds were determined by the following criteria: Average Fluorescence Intensity of a well with the compound was >6 SD greater than Average Fluorescence Intensity of the control (mean of 16 wells), and Total Fluorescence Intensity for the compound was >0 SD greater than the control; or Total Fluorescence Intensity of the compound was >4 SD greater than the control, and Average Fluorescence Intensity of the compound was >0 SD greater than the control. One hundred and twenty compounds passed these criteria and were retested using 8 wells for each compound.
Confluent hESCs and hiPSCs were gently detached with CTK solution and transferred into Petri dishes (BD Biosciences) with Primate ES Cell Culture Medium (ReproCELL, Japan). Cells were held in suspension culture for 8-24 h to form aggregates. The sizes of hPSC aggregates (0.3-1 mm in diameter) are important for efficient differentiation. Following suspension culture, cell aggregates were attached to culture dishes (3-10×10^5 cells cm^−2) in cardiac differentiation medium: IMDM (Sigma), containing 20% FBS (Gibco), 1% MEM non-essential amino acid solution (Sigma), 1% Penicillin-Streptomycin (Gibco), 2 mM L-glutamine (Sigma), 0.001% 2-Mercaptoethanol (Gibco), and 0.005N NaOH, with 10 ng ml^−1 BMP4 (R&D Systems). The medium was changed to cardiac differentiation medium with 10 μM KY02111 and/or other WNT inhibitors added on Day 3 (hiPSC lines) or Day 4 (human or monkey ESC lines); XAV939 (Wako, Japan), IWP-2 (Santa Cruz Biotechnology), IWR-1 (Merck4Bioscience), IGFBP4 (R&D Systems), Dkk1 (R&D Systems) and the mixture of bFGF (R&D Systems), BMP4 (R&D Systems), VEGF (R&D Systems), DKK1 (R&D Systems), and Activin A (R&D Systems) (Non-patent literature 16). Medium was changed every 2-3 d. KY02111 and other WNT inhibitors were added until Day 9 for hiPSC lines and the monkey ESC line, or Day 14 for hESC lines. […]

Structure (SMILES)	proportions of beating colonies ([1]; FIG. 3d)	proportions of beating colonies with BIO ([1]; FIG. 3d)	intensity of the GFP signal driven by αMHC promoter [2]	cardiac differentiation when BIO was added [2]	promotion of cardiac differentiation of hiPSCs compared with other WNT inhibitors ([1]; FIG. 3d)	proportion of beating colonies after subculture ([1]; floating culture of beating colonies, FIG. 6)	day on which beating colonies emerged ([1]; time course, FIG. 6)	day until which cardiac colonies continued beating ([1]; time course, FIG. 6)	increase of differentiation compared to the control (GFP signal) ([2]; 10 μM, comparison of WNT inhibitors, FIG. 3b)	GFP expression level induced by N11474 and related compounds (structure-activity) ([2]; DMSO=100%)	promotion of cardiac differentiation relative to DMSO control (GFP increase ratio) ([2]; FIG. 1d)	promotion of cardiac differentiation relative to N11474 ([2]; FIG. 1d)
Cc1ccc2nc(NC(=O)CSc3nc4c(c(=O)n3-c3ccccc3)SCC4)sc2c1 [IWP-2, reference compound]	37%	completely inhibit	increased	completely inhibited	–	–	–	–	–	–	–	–
COc1ccc(CCC(=O)Nc2nc3ccc(Cl)cc3s2)cc1OC [KY02111, 2-(3-(3,4-dimethoxyphenyl)propanamide)-6-chlorobenzothiazole]	87%	did not cancel	most effective	not affected by BIO	most effective	up to 90%	10 days	≥ 50 days	about 80 fold	induced the highest levels	about 73 times	7.4 times
Oc1nc(-c2ccc(C(F)(F)F)cc2)nc2c1CSCC2 [XAV939, reference compound]	7.5%	completely inhibit	increased	completely inhibited	–	–	–	–	–	–	–	–
